Measurements: ChEMBL document CHEMBL3885861, “Open TG-GATES”

Organism: Rattus norvegicus
Test: Open TG-GATES - Regimen: Single
Assay type: toxicity, organism-based, Sprague-Dawley
Set-up: regimen Single, gender Male, age 6 weeks
Details: in vivo, po, 75 mg/kg, route gavage, dose level High; for APTT / Bas / Eos / Fbg / Hb / Ht / Lym / MCH / MCHC / MCV / Mono / Neu / PT / Plat / RBC / Ret / WBC: tissue Blood; for KIDNEY_L / KIDNEY_R / KIDNEY_TOTAL: tissue Kidney; for LIVER: tissue Liver; for A/G / ALP / ALT / AST / BUN / CRE / Ca / Cl / DBIL / GLC / IP / K / LDH / Na / PL / RALB / TBIL / TC / TG / TP / gamma-GTP: tissue Plasma

Molecule `NC1=NC(=O)C(c2ccccc2)O1` (configuration not stated) [PEMOLINE] has a TERMINAL_BW (3 h) of 208.2 g, an APTT (3 h) of 16.9 s and a Bas (3 h) of 0%. The Eos (3 h) was 0.8%, the Fbg (3 h) was 306.8 mg/dL and the Hb (3 h) was 13.3 g/dL. It also gave a Ht (3 h) of 39.3%, a Lym (3 h) of 74.8% and an MCH (3 h) of 21.9 pg. For the same molecule, the MCHC (3 h) was 33.9%, the MCV (3 h) was 64.8 fL and the Mono (3 h) was 2.6%. For the same molecule, the Neu (3 h) was 20.8%, the PT (3 h) was 13.3 s and the Plat (3 h) was 129.3 x10_4/uL. The RBC (3 h) was 606.8 x10_4/ul, the Ret (3 h) was 9.4% and the WBC (3 h) was 99.2 x10_2/uL. The KIDNEY_L (3 h) was 0.9 g, the KIDNEY_R (3 h) was 0.9 g and the KIDNEY_TOTAL (3 h) was 1.7 g. It also gave an LIVER (3 h) of 8.9 g, an A/G (3 h) of 1 and an ALP (3 h) of 1509.8 IU/L. The ALT (3 h) was 46.4 IU/L, the AST (3 h) was 87.6 IU/L and the BUN (3 h) was 7.8 mg/dL. The CRE (3 h) was 0.2 mg/dL, the Ca (3 h) was 10.4 mg/dL and the Cl (3 h) was 108.2 meq/L. The DBIL (3 h) was 0.012 mg/dL, the GLC (3 h) was 188.6 mg/dL and the IP (3 h) was 8.2 mg/dL. It also gave a K (3 h) of 3.7 meq/L, an LDH (3 h) of 74.6 IU/L and a Na (3 h) of 141.6 meq/L. The PL (3 h) was 132.8 mg/dL, the RALB (3 h) was 2.8 g/dL and the TBIL (3 h) was 0.042 mg/dL. The TC (3 h) was 80 mg/dL, the TG (3 h) was 36.8 mg/dL and the TP (3 h) was 5.5 g/dL. For the same molecule, the gamma-GTP (3 h) was 1.8 IU/L, the TERMINAL_BW (6 h) was 208.1 g and the APTT (6 h) was 17.1 s. For the same molecule, the Bas (6 h) was 0%, the Eos (6 h) was 1% and the Fbg (6 h) was 280.8 mg/dL. The Hb (6 h) was 13.6 g/dL, the Ht (6 h) was 40.2% and the Lym (6 h) was 75.2%. The MCH (6 h) was 22 pg, the MCHC (6 h) was 33.9% and the MCV (6 h) was 64.9 fL. For the same molecule, the Mono (6 h) was 3%, the Neu (6 h) was 20% and the PT (6 h) was 13.6 s. For the same molecule, the Plat (6 h) was 118.6 x10_4/uL, the RBC (6 h) was 620.2 x10_4/ul and the Ret (6 h) was 9.3%. For the same molecule, the WBC (6 h) was 89.6 x10_2/uL, the KIDNEY_L (6 h) was 0.9 g and the KIDNEY_R (6 h) was 0.9 g. It also gave a KIDNEY_TOTAL (6 h) of 1.8 g, an LIVER (6 h) of 7.6 g and an A/G (6 h) of 1. The ALP (6 h) was 1507.8 IU/L, the ALT (6 h) was 40.6 IU/L and the AST (6 h) was 104.8 IU/L. The BUN (6 h) was 9 mg/dL, the CRE (6 h) was 0.2 mg/dL and the Ca (6 h) was 10.3 mg/dL. The Cl (6 h) was 108.4 meq/L, the DBIL (6 h) was 0.01 mg/dL and the GLC (6 h) was 168.8 mg/dL. The IP (6 h) was 9.3 mg/dL, the K (6 h) was 3.7 meq/L and the LDH (6 h) was 110.8 IU/L. It also gave a Na (6 h) of 140.8 meq/L, a PL (6 h) of 119 mg/dL and an RALB (6 h) of 2.7 g/dL. It also gave a TBIL (6 h) of 0.05 mg/dL, a TC (6 h) of 77.4 mg/dL and a TG (6 h) of 14 mg/dL. The TP (6 h) was 5.4 g/dL, the gamma-GTP (6 h) was 1 IU/L and the TERMINAL_BW (9 h) was 209.6 g. It also gave an APTT (9 h) of 17.2 s, a Bas (9 h) of 0% and an Eos (9 h) of 0.6%. For the same molecule, the Fbg (9 h) was 330.2 mg/dL, the Hb (9 h) was 13.7 g/dL and the Ht (9 h) was 40.1%. The Lym (9 h) was 71.6%, the MCH (9 h) was 22.2 pg and the MCHC (9 h) was 34.2%. The MCV (9 h) was 65 fL, the Mono (9 h) was 2.2% and the Neu (9 h) was 25%. It also gave a PT (9 h) of 13.1 s, a Plat (9 h) of 113 x10_4/uL and an RBC (9 h) of 617.8 x10_4/ul. The Ret (9 h) was 9.2%, the WBC (9 h) was 80.9 x10_2/uL and the KIDNEY_L (9 h) was 0.9 g. The KIDNEY_R (9 h) was 0.9 g, the KIDNEY_TOTAL (9 h) was 1.8 g and the LIVER (9 h) was 7.3 g. The A/G (9 h) was 1, the ALP (9 h) was 1405.6 IU/L and the ALT (9 h) was 34.4 IU/L. For the same molecule, the AST (9 h) was 89 IU/L, the BUN (9 h) was 9 mg/dL and the CRE (9 h) was 0.2 mg/dL. It also gave a Ca (9 h) of 10.3 mg/dL, a Cl (9 h) of 107.8 meq/L and a DBIL (9 h) of 0.01 mg/dL. It also gave a GLC (9 h) of 190.4 mg/dL, an IP (9 h) of 10.4 mg/dL and a K (9 h) of 3.5 meq/L. It also gave an LDH (9 h) of 82 IU/L, a Na (9 h) of 141.2 meq/L and a PL (9 h) of 122.2 mg/dL. The RALB (9 h) was 2.9 g/dL, the TBIL (9 h) was 0.044 mg/dL and the TC (9 h) was 75.6 mg/dL. It also gave a TG (9 h) of 9.4 mg/dL, a TP (9 h) of 5.7 g/dL and a gamma-GTP (9 h) of 1.2 IU/L. The TERMINAL_BW (24 h) was 200.9 g, the APTT (24 h) was 15.7 s and the Bas (24 h) was 0%. It also gave an Eos (24 h) of 1%, a Fbg (24 h) of 324.8 mg/dL and a Hb (24 h) of 13.3 g/dL. The Ht (24 h) was 38.1%, the Lym (24 h) was 78.8% and the MCH (24 h) was 21.9 pg. For the same molecule, the MCHC (24 h) was 34.8%, the MCV (24 h) was 62.9 fL and the Mono (24 h) was 2.2%. It also gave a Neu (24 h) of 17.6%, a PT (24 h) of 13.1 s and a Plat (24 h) of 112.1 x10_4/uL. For the same molecule, the RBC (24 h) was 606.6 x10_4/ul, the Ret (24 h) was 8.5% and the WBC (24 h) was 84.2 x10_2/uL. For the same molecule, the KIDNEY_L (24 h) was 0.9 g, the KIDNEY_R (24 h) was 0.9 g and the KIDNEY_TOTAL (24 h) was 1.9 g. The LIVER (24 h) was 8.6 g, the A/G (24 h) was 1 and the ALP (24 h) was 1471 IU/L. It also gave an ALT (24 h) of 40.8 IU/L, an AST (24 h) of 92.6 IU/L and a BUN (24 h) of 14 mg/dL. The CRE (24 h) was 0.2 mg/dL, the Ca (24 h) was 10.6 mg/dL and the Cl (24 h) was 104.8 meq/L. It also gave a DBIL (24 h) of 0.014 mg/dL, a GLC (24 h) of 177.6 mg/dL and an IP (24 h) of 8.6 mg/dL. For the same molecule, the K (24 h) was 4.1 meq/L, the LDH (24 h) was 66.2 IU/L and the Na (24 h) was 141.4 meq/L. It also gave a PL (24 h) of 127.6 mg/dL, an RALB (24 h) of 2.7 g/dL and a TBIL (24 h) of 0.038 mg/dL. The TC (24 h) was 80.4 mg/dL, the TG (24 h) was 38.2 mg/dL and the TP (24 h) was 5.4 g/dL. For the same molecule, the gamma-GTP (24 h) was 1 IU/L.
